# Data taken from patent publication US7247650B2, “Macrolides and methods for producing same” (Wyeth, priority 2004, dated 2007).
# Key:
# Assay type in all cases: cell-based, rat
# [1] = tested on: cultured dopaminergic neurons; experiment: High-affinity 3H-dopamine uptake after MPP+ induced toxicity
# Description: Mesencephalic dopaminergic neuron cultures were prepared as previously described in Pong et al., J Neurochem. 69: 986–994 (1997). Embryonic day 15 (E15) rat fetuses were collected and dissected in ice-cold phosphate-buffered saline (PBS). The ventral piece of tissue compromising the mesencephalic dopaminergic region was dissected out. Dissected pieces of tissue were pooled together and transferred to an enzymatic dissociation medium containing 20 IU/ml papain in Earle's balanced salt solution (Worthington Biochemical, Freehold, N.J., U.S.A.) and incubated for 60 minutes at 37° C. After enzymatic dissociation, the papain solution was aspirated and the tissue mechanically triturated with a fire-polished glass Pasteur pipette in complete medium [equal volumes of minimum essential medium (MEM) and F-12 nutrient mixture (Gibco BRL) supplemented with 0.1 mg/ml apotransferrin and 2.5 μg/ml insulin] containing 2,000 IU/ml DNase and 10 mg/ml ovomucoid protease inhibitor.
# For dopamine uptake experiments, single-cell suspensions in complete media were seeded on poly-L-ornithine and laminin coated 24-well plates. The cultures were maintained for seven days prior to experimentation. Cultures were pretreated with various concentrations of the compound of formula (I) (washed with PBS and diluted with media to concentrations of 1 nM to 1000 nM) for 24 hours, then exposed to 10 μM the neurotoxin 1-methyl-4-phenylpyridinium (MPP^+) for 1 hour to assess the neuroprotective effect of the compound of formula (I) in cell culture. Following the 1 hour incubation, media was exchanged three times and fresh compound was added for an additional 48 hours.
# More particularly, after 48 hours growth of mesencephalic dopaminergic neuron cultures following MPP^+ exposure, high-affinity ^3H-dopamine uptake was performed using a modified method described by Prochiantz et al., Nature 293: 570–572 (1981). Cultures were washed with pre-warmed phosphate-buffered saline (PBS) containing 5.6 mM glucose and 1 mM ascorbic acid. Cultures were then incubated for 15 minutes at 37° C. with 50 nM ^3H-dopamine (31 Ci/mmol, Du Pont-NEN, Wilmington, Del., U.S.A.). The cultures were washed twice with buffer and lysed with 0.5 N NaOH. The lysate was transferred to a scintillation vial containing Ultima Gold scintillation cocktail and radioactivity was determined with a liquid scintillation counter. Alternatively, culture lysates can be washed twice with buffer, incubated for 2 hours at room temperature with Optiphase Supermix scintillation cocktail (Wallac Scintillation Products, Gaithersburg, Md., USA), and radioactivity measured with a liquid scintillation counter.
# [2] = tested on: cultured cortical neurons; experiment: Neurofilament content in cultured cortical neurons
# Description: Dissociated cortical neuron cultures were prepared as previously described [Pong et al., Exp Neurol. 2001 September; 171(1):84–97 (2001)]. Briefly, embryonic day 15 rat fetuses were collected and dissected in ice-cold PBS. Dissected cortices were pooled together and transferred to an enzymatic dissociation medium containing papain. After 30 min, the tissue was mechanically triturated with a fire-polished glass Pasteur pipette. Single-cell suspensions in complete media were seeded on poly-L-ornithine and laminin coated 96-well plates. 24 hours later, cultures were treated with various concentrations of compound of formula (I) for 72 hours. The cultures were then fixed and stained with a neurofilament primary antibody and a peroxidase-tagged secondary antibody. A peroxidase substrate (K-Blue Max) was added and the colorimetric change was measure on a colorimetric plate reader.
# [3] = tested on: cultured dorsal root ganglia; experiment: Neurite outgrowth (total neurite length per cell) in cultured dorsal root ganglia; parameters: unit of the concentration uncertain; settings: 72 hours
# Description: Dissociated dorsal root ganglia cultures were prepared as previously described [A. Wood et al., “Stimulation of neurite outgrowth by immunophilin ligands: quantitative analysis by Cellomics Array scan” Society for Neuroscience (2004), abstract 104.3] Briefly, postnatal day 3–5 rat pups were euthanized. The spinal columns were removed and individual dorsal root ganglia (DRG) were dissected out. Dissected DRG were pooled together and transferred to an enzymatic dissociation medium containing papain. After 60 minutes, the tissue was mechanically triturated with a fire-polished glass Pasteur pipette. Single-cell suspensions in complete media were seeded on poly-L-ornithine and laminin coated 96-well plates. After 24 hours, cultures were treated with various concentrations of the compound of formula I for 72 hours. The cultures were then fixed and stained with an anti-tubulin primary antibody (TUJ-1) and a fluorescent-tagged secondary antibody. Neurite outgrowth was determined by using the Enhanced Neurite Outgrowth (ENO) algorithm with the Cellomics ArrayScan and expressed as total neurite length per cell.
# [4] = tested on: cultured cortical neurons; experiment: Neurite outgrowth (total neurite length per cell) in cultured cortical neurons; parameters: unit of the concentration uncertain; settings: 72 hours
# Description: Dissociated cortical neuron cultures were prepared as previously described (Pong et al., cited above, 2001). Briefly, embryonic day 15 rat fetuses were collected and dissected in ice-cold PBS. Dissected cortices were pooled together and transferred to an enzymatic dissociation medium containing papain. After 30 minutes, the tissue was mechanically triturated with a fire-polished glass Pasteur pipette. Single-cell suspensions in complete media were seeded on poly-L-ornithine and laminin coated 96-well plates. After 24 hours, cultures were treated with various concentrations of the compound of formula I for 72 hours. The cultures were then fixed and stained with an anti-tubulin primary antibody (TUJ-1) and a fluorescent-tagged secondary antibody. Neurite outgrowth was determined by using the Enhanced Neurite Outgrowth (ENO) algorithm with the Cellomics ArrayScan and expressed as total neurite length per cell.
molecule,measurement,setting,value
"CC/C1=C\CC(/C(C)=C/C(C)C(C)O)OC(=O)C2CCCN2C(=O)C(=O)C2(O)OC(CCC2C)CC(O)C(C)C(O)CC(O)CC(O)/C(C)=C/C(C)CC(C)C1O (stereo not shown) [Compound (I), prolylmeridamycin]",3H-DOPAMINE UPTAKE (% UNTREATED CONTROL),"[1]; 1 nM compound, 24 h pretreatment, 10 μM MPP+ 1 hour, 48 h after",45% UNTREATED CONTROL
same,3H-DOPAMINE UPTAKE (% UNTREATED CONTROL),"[1]; 10 nM compound, 24 h pretreatment, 10 μM MPP+ 1 hour, 48 h after",52% UNTREATED CONTROL
same,3H-DOPAMINE UPTAKE (% UNTREATED CONTROL),"[1]; 100 nM compound, 24 h pretreatment, 10 μM MPP+ 1 hour, 48 h after",61% UNTREATED CONTROL
same,3H-DOPAMINE UPTAKE (% UNTREATED CONTROL),"[1]; 1000 nM compound, 24 h pretreatment, 10 μM MPP+ 1 hour, 48 h after",72% UNTREATED CONTROL
same,EC50,"[1]; Rattus norvegicus, Neuron, relative to maximum protection (84% uptake) afforded by 10 ng/mL GDNF, read-out: EC50, neuroprotection against MPP+-induced neurotoxicity",110 nM
same,potency compared with meridamycin,[1]; similar study with meridamycin,more potent
same,NEUROFILAMENT CONTENT (FOLD-INCREASE ABOVE UNTREATED CONTROL),"[2]; 10 nM, 72 hours",1.54 FOLD-INCREASE ABOVE UNTREATED CONTROL
same,NEUROFILAMENT CONTENT (FOLD-INCREASE ABOVE UNTREATED CONTROL),"[2]; 100 nM, 72 hours",2.22 FOLD-INCREASE ABOVE UNTREATED CONTROL
same,NEUROFILAMENT CONTENT (FOLD-INCREASE ABOVE UNTREATED CONTROL),"[2]; 1 μM, 72 hours",2.34 FOLD-INCREASE ABOVE UNTREATED CONTROL
same,NEUROFILAMENT CONTENT (FOLD-INCREASE ABOVE UNTREATED CONTROL),"[2]; 10 μM, 72 hours",2.26 FOLD-INCREASE ABOVE UNTREATED CONTROL
same,EC50,"[2]; Rattus norvegicus, Cortical neurone, 72 hours, neurofilament content, read-out: EC50, increased neuronal survival in cultured cortical neurons",21 nM
same,potency compared with meridamycin,[2]; similar study with meridamycin,more potent
same,Total Neurite Length (% Above Control),[3]; 10 nM,2% Above Control
same,Total Neurite Length (% Above Control),[3]; 100 nM,7% Above Control
same,Total Neurite Length (% Above Control),[3]; 1 (unit uncertain),21% Above Control
same,Total Neurite Length (% Above Control),[3]; 10 (unit uncertain),44% Above Control
same,Total Neurite Length (% Above Control),[4]; 10 nM,30% Above Control
same,Total Neurite Length (% Above Control),[4]; 100 nM,51% Above Control
same,Total Neurite Length (% Above Control),[4]; 1 (unit uncertain),120% Above Control
same,Total Neurite Length (% Above Control),[4]; 10 (unit uncertain),178% Above Control
"C[n+]1ccc(-c2ccccc2)cc1 [MPP^+, 1-methyl-4-phenylpyridinium, reference compound]",3H-DOPAMINE UPTAKE (% UNTREATED CONTROL),"[1]; 10 μM MPP+ for 1 hour, no test compound",40% UNTREATED CONTROL
"glial cell line-derived neurotrophic factor (protein, UniProt P39905 78-211, looked up, glial cell line-derived neurotrophic factor, gives maximum protection in the dopamine uptake assay) Glial cell line-derived …: SPDKQMAVLPRRERNRQAAAANPENSRGKGRRGQRGKNRGCVLTAIHLNVTDLGLGYETKEELIFRYCSGSCDAAETTYDKILKNLSRNRRLVSDKVGQACCRPIAFDDDLSFLDDNLVYHILRKHSAKRCGCI",maximum protection (% uptake),"[1]; 10 ng/mL GDNF, MPP+-induced neurotoxicity",84 % uptake
